Article PMC5303695 (Science (New York, N.Y.), 2016)

Biological target: PodA30–162 (Mycolicibacterium fortuitum, UniProt K0V2D8)
Test: X-ray crystal structure, […] Å
Type: binding
Details: co-crystal; solvent-exposed active site, stacking with F70

`Oc1cccc2nc3ccccc3nc12` [1-hydroxyphenazine] was tested. Which “X-ray crystal structure, 1.8 Å” value did it give?
Its value is “Crystal formation occurred only in the presence of 1-OH-PHZ, which was visible in a putative”.
